In patent US12239711B2, “Cereblon ligands and bifunctional compounds comprising the same” (Arvinas Operations, Inc., priority 2014, dated 2025) one finds IC50, Dmax and DC50 data, which are given here for ten compounds.

In assay [1] the test system is estrogen responsive element/promoter/luciferase reporter gene. Briefly: ERE Luciferase Assay in T47D-KBluc cells. Format: cell-based, human. The conditions noted are these: Homo sapiens, 24 hours, luciferase activity, read-out: Target Engagement IC50. Here is the method: 1. ERE Luciferase Assay for Compounds in Table 5.
T47D-KBluc cells (ATCC® #CRL_2865, T47D human breast cancer cells stably transfected with estrogen responsive element/promoter/luciferase reporter gene) were seeded into 96-well white opaque plates in RPMI growth medium supplemented with 10% fetal bovine serum (FBS) and allowed to adhere overnight in a 37° C. humidified incubator. The following day, cells were treated with PROTACs in a 12-point concentration curve (top final concentration of 300 nM with subsequent concentrations being 3-fold less with 2 pM being the lowest concentration in the assay). Each PROTAC was tested independently in two experiments on 96-well plates. After 24 hours, media was removed and lysis buffer was added to the wells. Following lysis, Bright-Glo™ Luciferase Assay Substrate (Promega, Madison WI) was added and the luciferase activity was measured using a Cytation 3 plate reader (BioTek™, Winooski, VT). Each compound was assayed in duplicate and the activity was calculated as IC50 using GraphPad Prism software (San Diego, CA).

The target in assay [2] is T1, Estrogen Receptor-Alpha (ERα) (Homo sapiens, UniProt P03372).
T1 construct: endogenous in cells; host or cells: MCF-7 (MCF7) cells
T1 sequence (P03372 1-595): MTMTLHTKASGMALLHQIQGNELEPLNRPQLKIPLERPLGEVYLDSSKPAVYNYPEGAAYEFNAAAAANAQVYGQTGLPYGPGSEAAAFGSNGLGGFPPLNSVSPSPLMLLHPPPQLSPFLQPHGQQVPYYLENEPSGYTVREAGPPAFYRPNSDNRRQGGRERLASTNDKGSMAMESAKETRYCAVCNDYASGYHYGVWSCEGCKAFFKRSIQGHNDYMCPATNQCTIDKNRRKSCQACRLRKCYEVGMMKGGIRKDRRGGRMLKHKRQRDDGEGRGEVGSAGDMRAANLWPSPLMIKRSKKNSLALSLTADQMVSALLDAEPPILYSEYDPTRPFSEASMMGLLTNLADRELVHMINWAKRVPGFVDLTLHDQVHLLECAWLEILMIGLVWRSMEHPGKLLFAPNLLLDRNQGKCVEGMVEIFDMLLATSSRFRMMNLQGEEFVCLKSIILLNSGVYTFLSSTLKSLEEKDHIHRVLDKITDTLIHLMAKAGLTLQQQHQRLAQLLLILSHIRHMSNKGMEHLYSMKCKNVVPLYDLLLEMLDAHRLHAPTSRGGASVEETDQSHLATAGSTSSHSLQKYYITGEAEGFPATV
Briefly: Estrogen Receptor-Alpha (ERα) degradation assay in MCF-7 cells (western blot / In-Cell Western). The class given is cell-based. The settings on record: for Dmax: MCF7, read-out: ER Dmax; for DC50: read-out: ER DC50. Here is the method:
2. Estrogen Receptor-Alpha (ERα) Degradation Assay in MCF-7 Cells Using Western Blot Method for Table 5.
The exemplary novel ERα degraders were assessed for their activity in degrading ERα in MCF-7 cells via western blot. The assay was carried out in the presence of 10% FBS or high percentage of human or mouse serum. Protocols of the western blot assay are described below.
MCF7 cells were grown in DMEM/F12 with 10% FBS and seeded at 24,000 cells per well in 100 μl into 96-well clear tissue culture plates. The following day, the cells were treated with PROTACs in a […] concentration curve with 100 nM being the top concentration and serial dilutions to make the other concentrations (30 nM, 10 nM, 3 nM, 1 nM, and 0.3 nM). At all concentrations, 0.01% DMSO is the final concentration in the well. The following day, the plates are aspirated, washed with 50 μl of cold PBS. The cells are lysed with 50 μl/well 4° C. Cell Lysis Buffer (Catalog #9803; Cell Signaling Technology, Danvers, MA) (20 mM Tris-HCL (pH 7.5), 150 mM NaCl, 1 mM Na2EDTA, 1 mM EGTA, 1% Triton, 2.5 mM sodium pyrophosphate, 1 mM B-glycerophosphate, 1 mM sodium vanadate, 1 ug/ml leupeptin). Lysates were clarified at 16,000×g for 10 minutes, and 2 μg of protein was subjected to SDS-PAGE analysis and followed by immunoblotting according to standard protocols. The antibodies used were ERα (Cell Signaling Technologies Catalog #8644), and Tubulin (Sigma Catalog #T9026; St. Louis, MO). Detection reagents were Clarity Western ECL substrate (Bio-Rad Catalog #170-5060; Hercules, CA).
Alternatively, MCF7 cells were grown in DMEM/F12 with 10% FBS and seeded at 24,000 cells per well in 500 μl in 24-well clear tissue culture plates. The following day, the cells were treated with PROTACs in a 5-point concentration curve (100 nM, 33 nM, 11 nM, 3.7 nM, and 1.2 nM) in the presence of 0.01% DMSO. After 72 hours, the wells are aspirated and washed with 500 μl of PBS. The cells are lysed with 100 μl/well 4° C. Cell Lysis Buffer (Catalog #9803; Cell Signaling Technology, Danvers, MA) (20 mM Tris-HCL (pH 7.5), 150 mM NaCl, 1 mM Na2EDTA, 1 mM EGTA, 1% Triton, 2.5 mM sodium pyrophosphate, 1 mM B-glycerophosphate, 1 mM sodium vanadate, 1 ug/ml leupeptin). Lysates were clarified at 16,000×g for 10 minutes, and 2 μg of protein was subjected to SDS-PAGE analysis and followed by immunoblotting according to standard protocols. The antibodies used were ERα (Cell Signaling Technologies Catalog #8644), and Tubulin (Sigma Catalog #T9026; St. Louis, MO). Detection reagents were Clarity Western ECL substrate (Bio-Rad Catalog #170-5060; Hercules, CA).
3. Estrogen Receptor-Alpha (ERα) Degradation Assay Using In-Cell Western™ Assay for Table 5.
Degradation of ERα by claimed compounds were determined in MCF7 cells using an In-Cell Western™ assay. Briefly, MCF7 cells were plated in 96-well plates (2000 cells per well in 100 μl media) and incubated at 37° C. under an atmosphere of 5% CO2 in a humidified incubator overnight. One-hundred (100) μl of media containing test compound (at 2× concentration) was added to the appropriate wells to provide 11 serially decreasing concentrations (top final concentration, 1 μM then 3-fold less for the next 10 concentrations); a vehicle control (DMSO) was also added for each compound. For each experiment, all compounds were assayed in duplicate plates. Cells were then incubated for 3 or 5 days in the above-mentioned environment. The assay was terminated by removal of media, a single wash with ice-cold PBS and the addition of 50 μl paraformaldehyde (PFA: 4% in PBS). After 15 minutes in PFA at room temperature, the cells were permeabilized in Tris-phosphate-buffered saline with Tween (0.1%) (TBST) supplemented with Triton X-100 (0.5%) for 15 minutes. Cells were then blocked in BSA (TBST with BSA, 3%) for one hour. […]
A general note: In western blotting, separated proteins are transferred to a membrane and probed.

With `O=C1CCC(N2Cc3cc(N4CCN(CCCC(F)(F)COc5ccc([C@@H]6c7ccc(O)cc7CC[C@@H]6c6ccccc6)cc5)CC4)cc(OC(F)F)c3C2=O)C(=O)N1` (stereo partly drawn) [compound 21, 3-[5-[4-[4,4-difluoro-5-[4-[(1R,2S)-6-hydroxy-2-phenyl-tetralin-1-yl]phenoxy]pentyl]piperazin-1-yl]-7-(difluoromethoxy)-1-oxo-isoindolin-2-yl]piperidine-2,6-dione], the IC50 in assay [1] turned out to be 2.5 nM. Moreover, in assay [2], the Dmax fell in the range of 50 to 75% and the DC50 is 1 to 10 nM.

On to `O=C1CCC(N2Cc3cc(N4CCN(CCC5CCN(c6ccc([C@@H]7c8ccc(O)cc8CC[C@@H]7c7ccccc7)cc6)CC5)CC4)cc(OC(F)F)c3C2=O)C(=O)N1` (stereo partly drawn) [compound 22, 3-[7-(difluoromethoxy)-5-[4-[2-[1-[4-[(1R,2S)-6-hydroxy-2-phenyl-tetralin-1-yl]phenyl]-4-piperidyl]ethyl]piperazin-1-yl]-1-oxo-isoindolin-2-yl]piperidine-2,6-dione], for which the IC50 in assay [1] stood at 4.4 nM. Further, in assay [2], the Dmax was no less than 75% and the DC50 was 1 to 10 nM.

As for `O=C1CCC(N2Cc3cc(N4CCN(CCC5CC(Oc6ccc([C@@H]7c8ccc(O)cc8CC[C@@H]7c7ccccc7)cc6)C5)CC4)cc(OC(F)F)c3C2=O)C(=O)N1` (stereo partly drawn) [compound 23, 3-[7-(difluoromethoxy)-5-[4-[2-[3-[4-[(1R,2S)-6-hydroxy-2-phenyl-tetralin-1-yl]phenoxy]cyclobutyl]ethyl]piperazin-1-yl]-1-oxo-isoindolin-2-yl]piperidine-2,6-dione], the IC50 in assay [1] is 1.8 nM. Moreover, in assay [2], the Dmax is 50 to 75% and the DC50 fell in the range of 1 to 10 nM.

Turning to `COc1cc(N2CCN(CCC3CCN(c4ccc([C@@H]5c6ccc(O)cc6CC[C@@H]5c5ccccc5)cc4F)CC3)CC2)cc2c1C(=O)N(C1CCC(=O)NC1=O)C2` (stereo partly drawn) [compound 24, 3-[5-[4-[2-[1-[2-fluoro-4-[(1R,2S)-6-hydroxy-2-phenyl-tetralin-1-yl]phenyl]-4-piperidyl]ethyl]piperazin-1-yl]-7-methoxy-1-oxo-isoindolin-2-yl]piperidine-2,6-dione], the IC50 in assay [1] was determined as 0.7 nM. In assay [2], the Dmax is no less than 75% and the DC50 fell in the range of 1 to 10 nM.

As to `O=C1CCC(n2nc3cc(N4CCN(CCCCCOc5ccc([C@@H]6c7ccc(O)cc7CC[C@@H]6c6ccccc6)cc5)CC4)ccn3c2=O)C(=O)N1` (stereo partly drawn) [compound 25, 3-{7-[4-(5-{4-[(1R,2S)-6-hydroxy-2-phenyl-1,2,3,4-tetrahydronaphthalen-1-yl]phenoxy}pentyl)piperazin-1-yl]-3-oxo-2H,3H-[1,2,4]triazolo[4,3-a]pyridin-2-yl}piperidine-2,6-dione], in assay [1], the IC50 came out at 0.5 nM. In addition, in assay [2], the Dmax is less than 50%.

As to `COc1cc(N2CCN(CC(=O)C3CC(Oc4ccc([C@@H]5c6ccc(O)cc6CC[C@@H]5c5ccccc5)cc4)C3)CC2)cc2c1C(=O)N(C1CCC(=O)NC1=O)C2` (stereo partly drawn) [compound 26, 3-[5-[4-[2-[3-[4-[(1R,2S)-6-hydroxy-2-phenyl-tetralin-1-yl]phenoxy]cyclobutyl]-2-oxo-ethyl]piperazin-1-yl]-7-methoxy-1-oxo-isoindolin-2-yl]piperidine-2,6-dione], the IC50 in assay [1] was 0.7 nM. Further, in assay [2], the Dmax was no less than 75% and the DC50 is less than 1 nM.

For the compound `O=C1CCC(N2Cc3cc(N4CCN(CCC5(O)CC(Oc6ccc([C@@H]7c8ccc(O)cc8CC[C@@H]7c7ccccc7)cc6)C5)CC4)cc(OC(F)F)c3C2=O)C(=O)N1` (stereo partly drawn) [compound 27, 3-[7-(difluoromethoxy)-5-[4-[2-[1-hydroxy-3-[4-[(1R,2S)-6-hydroxy-2-phenyl-tetralin-1-yl]phenoxy]cyclobutyl]ethyl]piperazin-1-yl]-1-oxo-isoindolin-2-yl]piperidine-2,6-dione], in assay [1], the IC50 worked out at 0.5 nM. In assay [2], the Dmax was 50 to 75% and the DC50 is less than 1 nM.

For `COc1cc(N2CCN(CCC3(O)CC(Oc4ccc([C@@H]5c6ccc(O)cc6CC[C@@H]5c5ccccc5)cc4)C3)CC2)cc2c1C(=O)N(C1CCC(=O)NC1=O)C2` (stereo partly drawn) [compound 28, 3-[5-[4-[2-[1-hydroxy-3-[4-[(1R,2S)-6-hydroxy-2-phenyl-tetralin-1-yl]phenoxy]cyclobutyl]ethyl]piperazin-1-yl]-7-methoxy-1-oxo-isoindolin-2-yl]piperidine-2,6-dione], the IC50 in assay [1] worked out at 0.3 nM. Moreover, in assay [2], the Dmax is no less than 75% and the DC50 was less than 1 nM.

As to `O=C1CCC(N2C(=O)c3ccc(N4CCN(CC5CCN(c6ccc([C@@H]7c8ccc(O)cc8CC[C@@H]7c7ccccc7)cc6)CC5)CC4)cc3C23CC3)C(=O)N1` (stereo partly drawn) [compound 29, 3-(6′-{4-[(1-{4-[(1R,2S)-6-hydroxy-2-phenyl-1,2,3,4-tetrahydronaphthalen-1-yl]phenyl}piperidin-4-yl)methyl]piperazin-1-yl}-3′-oxo-2′,3′-dihydrospiro[cyclopropane-1,1′-isoindole]-2′-yl)piperidine-2,6-dione], in assay [1], the IC50 turned out to be 2.4 nM. Further, the Dmax in assay [2] was less than 50%.

Turning to `O=C1CCC(N2C(=O)c3ccc(N4CCN(CC5CCN(c6ccc([C@@H]7c8ccc(O)cc8CC[C@@H]7c7ccccc7)cc6F)CC5)CC4)cc3C23CC3)C(=O)N1` (stereo partly drawn) [compound 30, 3-[6′-[4-[[1-[2-fluoro-4-[(1R,2S)-6-hydroxy-2-phenyl-tetralin-1-yl]phenyl]-4-piperidyl]methyl]piperazin-1-yl]-3′-oxo-spiro[cyclopropane-1,1′-isoindoline]-2′-yl]piperidine-2,6-dione], the IC50 in assay [1] is 2.1 nM. Besides, in assay [2], the Dmax is 50 to 75% and the DC50 lay in the range of 1 to 10 nM.

A word on the IC50: it is the concentration at which inhibition is half-maximal. What is called Dmax is the greatest extent of degradation seen. The term DC50 denotes the concentration at which degradation of the target reaches its halfway point.
